The values that follow come from ChEMBL document CHEMBL4052741, “Macrocyclic inhibitors of Factor XIa: Discovery of alkyl-substituted macrocyclic amide linkers with improved potency” (Bioorg Med Chem Lett, 2017).

One data set relates to Plasma. Nature of the data set: Anticoagulant activity in human platelet rich plasma assessed as plasma concentration required for 50% increase in clotting time by aPTT assay. The data set is classed as functional.
In the next data set the target is Coagulation factor XI (Homo sapiens, UniProt P03951). Nature of the data set: Inhibition of human Factor XIa using S-2366 as chromogenic substrate after 60 mins by Lineweaver-Burk plot analysis.
Sequence of Coagulation factor XI (P03951 19-387 limits assumed): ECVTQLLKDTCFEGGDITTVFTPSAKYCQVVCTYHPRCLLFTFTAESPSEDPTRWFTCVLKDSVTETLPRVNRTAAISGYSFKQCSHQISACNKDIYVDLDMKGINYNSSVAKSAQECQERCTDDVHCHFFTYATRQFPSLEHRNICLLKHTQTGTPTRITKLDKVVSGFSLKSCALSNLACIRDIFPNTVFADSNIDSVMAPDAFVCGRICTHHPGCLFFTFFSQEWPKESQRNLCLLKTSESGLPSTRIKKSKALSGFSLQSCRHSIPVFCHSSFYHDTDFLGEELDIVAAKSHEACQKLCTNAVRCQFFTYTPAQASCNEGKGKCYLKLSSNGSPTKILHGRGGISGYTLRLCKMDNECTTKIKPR
Sequence of Coagulation factor XI (P03951 388-625 limits assumed): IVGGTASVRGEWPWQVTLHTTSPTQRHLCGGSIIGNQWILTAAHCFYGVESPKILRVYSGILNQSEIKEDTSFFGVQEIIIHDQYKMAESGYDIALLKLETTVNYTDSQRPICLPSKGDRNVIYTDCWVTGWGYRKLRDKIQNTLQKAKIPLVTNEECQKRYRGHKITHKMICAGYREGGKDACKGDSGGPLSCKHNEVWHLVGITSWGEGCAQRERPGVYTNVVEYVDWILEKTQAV
Data set [1] is described as follows: Protein binding in human plasma. The data set is classed as ADME, cell-free. Particulars: read-out: PPB (converted).
Data set [2] can be described thus: Half life in Sprague-Dawley rat at 0.55 mg/kg, iv or 1.11 mg/kg, po administered as cassette dose by LC-MS/MS analysis. In kind it is ADME, organism-based. Particulars: in vivo.
Data set [3] can be described thus: Volume of distribution at steady state in Sprague-Dawley rat at 0.55 mg/kg, iv or 1.11 mg/kg, po administered as cassette dose by LC-MS/MS analysis. Particulars: in vivo, read-out: Vdss. The data set is classed as ADME, organism-based.
Data set [4] is described as follows: AUC in Sprague-Dawley rat at 0.55 mg/kg, iv or 1.11 mg/kg, po by LC-MS/MS analysis. Particulars: in vivo. The data set is classed as ADME, organism-based.
Data set [5] is described as follows: Clearance in Sprague-Dawley rat at 0.55 mg/kg, iv or 1.11 mg/kg, po administered as cassette dose by LC-MS/MS analysis. Particulars: in vivo. In kind it is ADME, organism-based.
The nature of data set [6]: Permeability of the compound from basolateral to apical side in human Caco2 cells. In kind it is ADME, cell-based. Particulars: Caco-2, read-out: permeability. A general note: Passage across Caco-2 layers is used to estimate intestinal permeability.
Data set [7] is described as follows: Half life in human liver microsomes. The data set is classed as ADME, microsome.
A short description of data set [8]: Oral bioavailability in Sprague-Dawley rat at 1.11 mg/kg by LC-MS/MS analysis. The data set is classed as ADME, organism-based. Particulars: in vivo.
A short description of data set [9]: Permeability of the compound from apical to basolateral side in human Caco2 cells. In kind it is ADME, cell-based. Particulars: Caco-2, read-out: permeability.
A short description of data set [10]: Volume of distribution at steady state in Sprague-Dawley rat at 0.55 mg/kg, iv or 1.09 mg/kg, po administered as cassette dose by LC-MS/MS analysis. The data set is classed as ADME, organism-based. Particulars: in vivo, read-out: Vdss.
Data set [11] is described as follows: AUC in Sprague-Dawley rat at 0.55 mg/kg, iv or 1.09 mg/kg, po by LC-MS/MS analysis. Particulars: in vivo. In kind it is ADME, organism-based.
Data set [12] is described as follows: Half life in Sprague-Dawley rat at 0.55 mg/kg, iv or 1.09 mg/kg, po administered as cassette dose by LC-MS/MS analysis. In kind it is ADME, organism-based. Particulars: in vivo.
Data set [13] is described as follows: Oral bioavailability in Sprague-Dawley rat at 1.09 mg/kg administered as cassette dose by LC-MS/MS analysis. Particulars: in vivo. The data set is classed as ADME, organism-based.
The nature of data set [14]: Clearance in Sprague-Dawley rat at 0.55 mg/kg, iv or 1.09 mg/kg, po administered as cassette dose by LC-MS/MS analysis. Particulars: in vivo. In kind it is ADME, organism-based.
A short description of data set [15]: AUC in Sprague-Dawley rat at 0.75 mg/kg, iv or 1.5 mg/kg, po by LC-MS/MS analysis. In kind it is ADME, organism-based. Particulars: in vivo.
Data set [16] can be described thus: Oral bioavailability in Sprague-Dawley rat at 1.5 mg/kg by LC-MS/MS analysis. In kind it is ADME, organism-based. Particulars: in vivo.
The nature of data set [17]: Half life in Sprague-Dawley rat at 0.75 mg/kg, iv or 1.5 mg/kg, po administered as cassette dose by LC-MS/MS analysis. The data set is classed as ADME, organism-based. Particulars: in vivo.
A short description of data set [18]: Clearance in Sprague-Dawley rat at 0.75 mg/kg, iv or 1.5 mg/kg, po administered as cassette dose by LC-MS/MS analysis. In kind it is ADME, organism-based. Particulars: in vivo.
A short description of data set [19]: Volume of distribution at steady state in Sprague-Dawley rat at 0.75 mg/kg, iv or 1.5 mg/kg, po administered as cassette dose by LC-MS/MS analysis. Particulars: in vivo, read-out: Vdss. In kind it is ADME, organism-based.

Regarding `COC(=O)Nc1ccc2c(c1)NC(=O)C[C@H](C)CCC[C@H](NC(=O)/C=C/c1cc(Cl)ccc1-n1cnnn1)c1nc-2c[nH]1`, the EC1.5 with Plasma was determined as 27 µM.
Turning to `COC(=O)Nc1ccc2c(c1)NC(=O)CCC(C)CC[C@H](NC(=O)/C=C/c1cc(Cl)ccc1-n1cnnn1)c1nc-2c[nH]1` (single isomer, unassigned; diastereomer B), in the data set with Plasma, the EC1.5 is 12 µM. Also, affinity at Coagulation factor XI was put at a Ki of 18 nM.
The corresponding values for `COC(=O)Nc1ccc2c(c1)NC(=O)C[C@@H](C)/C=C/C[C@H](NC(=O)/C=C/c1cc(Cl)ccc1-n1cnnn1)c1nc-2c[nH]1` are 0.38 µM and 0.13 nM.
On the same counts, the results for `COC(=O)Nc1ccc2c(c1)NC(=O)[C@H](C)CCC[C@H](NC(=O)/C=C/c1cc(Cl)ccc1-n1cnnn1)c1nc-2c(Cl)[nH]1` are 1.2 µM and 0.07 nM.
On the same counts, the results for `COC(=O)Nc1ccc2c(c1)NC(=O)C(C)C/C=C/C[C@H](NC(=O)/C=C/c1cc(Cl)ccc1-n1cnnn1)c1nc-2c[nH]1` (single isomer, unassigned; diastereomer B) are 1.2 µM and 2.7 nM.
As for `CC[C@@H]1CCC[C@H](NC(=O)/C=C/c2cc(Cl)ccc2-n2cnnn2)c2nc(c[nH]2)-c2ccc(NC(=O)OC)cc2NC1=O`, the EC1.5 in the data set with Plasma is 0.52 µM.
`COC(=O)Nc1ccc2c(c1)NC(=O)C[C@@H](C)CCC[C@H](NC(=O)/C=C/c1cc(Cl)ccc1-n1cnnn1)c1nc-2c[nH]1`: the fraction unbound in [1] was 0.02. Moreover, in the data set on Plasma, the EC1.5 was 1.1 µM.
As to `COC(=O)Nc1ccc2c(c1)NC(=O)CCCCC[C@H](NC(=O)/C=C/c1cc(Cl)ccc1-n1cnnn1)c1nc-2c[nH]1`, the fraction unbound in data set [1] is 0.038.
Turning to `COC(=O)Nc1ccc2c(c1)NC(=O)[C@@H](C(C)C)CCC[C@H](NC(=O)/C=C/c1cc(Cl)ccc1-n1cnnn1)c1nc-2c[nH]1`, in the data set with Plasma, the EC1.5 turned out to be 64 µM. Also, the affinity on Coagulation factor XI corresponds to a Ki of 21 nM.
The corresponding values for `COC(=O)Nc1ccc2c(c1)NC(=O)C[C@H](C)/C=C/C[C@H](NC(=O)/C=C/c1cc(Cl)ccc1-n1cnnn1)c1nc-2c[nH]1` are 0.98 µM and 2 nM.
The corresponding values for `COC(=O)Nc1ccc2c(c1)NC(=O)[C@H](C(C)C)CCC[C@H](NC(=O)/C=C/c1cc(Cl)ccc1-n1cnnn1)c1nc-2c[nH]1` are 1.1 µM and 0.14 nM.
Turning to `COC(=O)Nc1ccc2c(c1)NC(=O)CC/C=C/C[C@H](NC(=O)c1c(F)cc(C)cc1F)c1nc-2c(Cl)[nH]1`, the half-life (as a rule, how long it takes for the measured level to halve) in data set [2] is 54 min; in [7] it was 17 min. For the same compound, the Vd in data set [3] stood at 0.4 L/kg. Moreover, the AUC (commonly the area under the concentration-time curve, a measure of exposure) in [4] came out at 2080 nM·h. In data set [5], this compound showed a clearance of 0.336 L/h/kg. In data set [6], the Papp B→A amounted to 200 nm/s. In addition, in [8], the bioavailability (usually dose-corrected exposure relative to a reference, in per cent) was 41%. Besides, in the data set with Plasma, the EC1.5 stood at 6.6 µM. Moreover, the affinity on Coagulation factor XI corresponds to a Ki of 16 nM. Further, the Papp A→B in data set [9] is under 15 nm/s.
For `COC(=O)Nc1ccc2c(c1)NC(=O)C(C)CCCC[C@H](NC(=O)/C=C/c1cc(Cl)ccc1-n1cnnn1)c1nc-2c[nH]1` (single isomer, unassigned; diastereomer A), the EC1.5 in the data set on Plasma came out at 5.3 µM. The Ki (in general, the dissociation constant of the complex between target and ligand, obtained from inhibition or displacement) at Coagulation factor XI is 6.5 nM.
On the same counts, the results for `COC(=O)Nc1ccc2c(c1)NC(=O)C(C)C/C=C/C[C@H](NC(=O)/C=C/c1cc(Cl)ccc1-n1cnnn1)c1nc-2c[nH]1` (single isomer, unassigned; diastereomer A) are 0.67 µM and 0.33 nM.
The corresponding values for `COC(=O)Nc1ccc2c(c1)NC(=O)CCC(C)CC[C@H](NC(=O)/C=C/c1cc(Cl)ccc1-n1cnnn1)c1nc-2c[nH]1` (single isomer, unassigned; diastereomer A) are 2.5 µM and 5.9 nM.
The corresponding values for `COC(=O)Nc1ccc2c(c1)NC(=O)CC(C)CC[C@H](NC(=O)/C=C/c1cc(Cl)ccc1-n1cnnn1)c1nc-2c[nH]1` (single isomer, unassigned; diastereomer A) are 37 µM and 36 nM.
On to `COC(=O)Nc1ccc2c(c1)NC(=O)C(C)CCCC[C@H](NC(=O)/C=C/c1cc(Cl)ccc1-n1cnnn1)c1nc-2c[nH]1` (single isomer, unassigned; diastereomer B), for which the EC1.5 in the data set with Plasma is 32 µM. At Coagulation factor XI, this compound gave a Ki of 31 nM.
Take `COC(=O)Nc1ccc2c(c1)NC(=O)[C@@H](C)CCC[C@H](NC(=O)/C=C/c1cc(Cl)ccc1-n1cnnn1)c1nc-2c[nH]1`: in the data set with Plasma, the EC1.5 was determined as 0.63 µM.
For the compound `COC(=O)Nc1ccc2c(c1)NC(=O)[C@H](C)CCC[C@H](NC(=O)c1c(F)cc(C)cc1F)c1nc-2c(Cl)[nH]1`, in data set [6], the Papp B→A came to 111 nm/s. The compound also came in with a half-life in data set [7] of 8 min. Besides, the EC1.5 in the data set with Plasma was found to be 2 µM. At Coagulation factor XI, this compound came in with a Ki of 10 nM. The Papp A→B in [9] is under 15 nm/s.
`CC[C@H]1CCC[C@H](NC(=O)/C=C/c2cc(Cl)ccc2-n2cnnn2)c2nc(c[nH]2)-c2ccc(NC(=O)OC)cc2NC1=O`: the EC1.5 in the data set with Plasma stood at 4 µM.
In the case of `COC(=O)Nc1ccc2c(c1)NC(=O)C[C@@H](C)CCC[C@H](NC(=O)c1c(F)cc(C)cc1F)c1nc-2c(Cl)[nH]1`, the Papp B→A in [6] was determined as 251 nm/s. In addition, in data set [7], the half-life was found to be 45 min. Moreover, the EC1.5 in the data set with Plasma amounted to 12 µM. Moreover, the Ki at Coagulation factor XI was 44 nM. Moreover, the Papp A→B in data set [9] came out at 18 nm/s.
With `COC(=O)Nc1ccc2c(c1)NC(=O)CC/C=C/C[C@H](NC(=O)/C=C/c1cc(Cl)ccc1-n1cnnn1)c1nc-2c(Cl)[nH]1`, in data set [10], the Vd worked out at 0.4 L/kg. In addition, the AUC in data set [11] is 2 nM·h. The Papp B→A in [6] stood at 58 nm/s. For the same compound, the half-life in data set [12] is 42 min. The bioavailability in data set [13] came out at 0.2%. The clearance in data set [14] was 1.44 L/h/kg. Also, the Papp A→B in [9] is under 15 nm/s.
As for `COC(=O)Nc1ccc2c(c1)NC(=O)[C@H](C)CCC[C@H](NC(=O)/C=C/c1cc(Cl)ccc1-n1cnnn1)c1nc-2c[nH]1`, the EC1.5 with Plasma came out at 0.39 µM.
As for `COC(=O)Nc1ccc2c(c1)NC(=O)CC(C)CC[C@H](NC(=O)/C=C/c1cc(Cl)ccc1-n1cnnn1)c1nc-2c[nH]1` (single isomer, unassigned; diastereomer B), the EC1.5 with Plasma was found to be 31 µM. The Ki at Coagulation factor XI was 35 nM.
On the same counts, the results for `COC(=O)Nc1ccc2c(c1)NC(=O)C[C@@H](C)CCC[C@H](NC(=O)/C=C/c1cc(Cl)ccc1-n1cnnn1)c1nc-2c(Cl)[nH]1` are 0.57 µM and 0.06 nM.
For the compound `COC(=O)Nc1ccc2c(c1)NC(=O)C[C@@H](C)/C=C/C[C@H](NC(=O)c1c(F)cc(C)cc1F)c1nc-2c(Cl)[nH]1`, the AUC in data set [15] came out at 991 nM·h. Further, in data set [16], the bioavailability was 16%. For the same compound, the figures for the half-life in data set [17] and in data set [7] were 54 min and 35 min, respectively. This compound displayed a clearance in data set [18] of 0.36 L/h/kg. In addition, in data set [6], the Papp B→A was 189 nm/s. Further, in data set [19], the Vd amounted to 0.3 L/kg. Also, in the data set on Plasma, the EC1.5 was found to be 2.7 µM. In addition, on Coagulation factor XI, the affinity corresponds to a Ki of 12 nM. The Papp A→B in data set [9] is under 15 nm/s.
